Consider 9 compounds from ChEMBL document CHEMBL5291721, “A preclinical secondary pharmacology resource illuminates target-adverse drug reaction associations of marketed drugs” (Nat Commun, 2023).

Assay [1] addresses T1, Alpha-2A adrenergic receptor (Homo sapiens, UniProt P08913).
T1 sequence (P08913 whole entry): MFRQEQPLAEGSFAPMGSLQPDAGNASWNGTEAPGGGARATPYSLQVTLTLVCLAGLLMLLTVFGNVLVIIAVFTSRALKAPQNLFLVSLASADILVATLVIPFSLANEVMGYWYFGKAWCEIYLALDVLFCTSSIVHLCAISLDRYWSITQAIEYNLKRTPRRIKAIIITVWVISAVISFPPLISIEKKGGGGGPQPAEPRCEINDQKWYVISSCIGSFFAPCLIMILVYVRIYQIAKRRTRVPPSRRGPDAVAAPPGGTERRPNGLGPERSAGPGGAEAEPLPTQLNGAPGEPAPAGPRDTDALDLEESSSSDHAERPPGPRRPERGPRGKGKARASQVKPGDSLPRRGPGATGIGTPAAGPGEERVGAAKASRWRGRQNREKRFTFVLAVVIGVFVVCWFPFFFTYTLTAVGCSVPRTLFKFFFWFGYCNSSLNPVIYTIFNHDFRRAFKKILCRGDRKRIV

The target in another assay is Cannabinoid receptor 1 (Homo sapiens, UniProt P21554). In kind it is functional.
Chain of Cannabinoid receptor 1 (P21554 whole entry): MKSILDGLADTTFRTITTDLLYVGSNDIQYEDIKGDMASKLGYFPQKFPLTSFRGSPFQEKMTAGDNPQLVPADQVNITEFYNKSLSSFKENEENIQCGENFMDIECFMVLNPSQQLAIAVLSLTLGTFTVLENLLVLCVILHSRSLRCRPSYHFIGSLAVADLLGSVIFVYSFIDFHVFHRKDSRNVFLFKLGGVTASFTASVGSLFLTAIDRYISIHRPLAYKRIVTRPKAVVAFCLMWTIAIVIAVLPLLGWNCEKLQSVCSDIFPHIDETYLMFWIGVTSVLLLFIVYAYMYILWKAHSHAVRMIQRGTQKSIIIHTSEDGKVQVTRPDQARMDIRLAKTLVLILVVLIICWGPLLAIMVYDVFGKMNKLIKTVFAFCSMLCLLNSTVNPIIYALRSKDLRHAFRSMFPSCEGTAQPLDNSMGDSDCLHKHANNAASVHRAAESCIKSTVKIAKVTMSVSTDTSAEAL
Assay [2] deals with 5-hydroxytryptamine receptor 7 (Homo sapiens, UniProt P34969).
Chain of 5-hydroxytryptamine receptor 7 (P34969 whole entry): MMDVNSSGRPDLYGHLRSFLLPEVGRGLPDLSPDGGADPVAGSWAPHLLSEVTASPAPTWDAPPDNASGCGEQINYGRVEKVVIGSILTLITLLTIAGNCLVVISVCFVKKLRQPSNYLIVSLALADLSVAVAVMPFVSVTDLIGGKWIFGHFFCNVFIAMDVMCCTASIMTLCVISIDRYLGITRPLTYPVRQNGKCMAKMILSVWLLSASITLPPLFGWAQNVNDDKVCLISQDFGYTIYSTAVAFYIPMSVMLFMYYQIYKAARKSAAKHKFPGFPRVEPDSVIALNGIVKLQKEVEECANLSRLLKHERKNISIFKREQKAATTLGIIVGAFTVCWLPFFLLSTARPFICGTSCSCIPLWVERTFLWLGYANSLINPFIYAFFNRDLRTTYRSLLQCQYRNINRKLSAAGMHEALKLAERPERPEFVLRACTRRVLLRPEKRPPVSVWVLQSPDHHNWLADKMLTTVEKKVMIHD
In assay [3] the target is T2, Muscarinic acetylcholine receptor M5 (Homo sapiens, UniProt P08912).
T2 sequence (P08912 whole entry): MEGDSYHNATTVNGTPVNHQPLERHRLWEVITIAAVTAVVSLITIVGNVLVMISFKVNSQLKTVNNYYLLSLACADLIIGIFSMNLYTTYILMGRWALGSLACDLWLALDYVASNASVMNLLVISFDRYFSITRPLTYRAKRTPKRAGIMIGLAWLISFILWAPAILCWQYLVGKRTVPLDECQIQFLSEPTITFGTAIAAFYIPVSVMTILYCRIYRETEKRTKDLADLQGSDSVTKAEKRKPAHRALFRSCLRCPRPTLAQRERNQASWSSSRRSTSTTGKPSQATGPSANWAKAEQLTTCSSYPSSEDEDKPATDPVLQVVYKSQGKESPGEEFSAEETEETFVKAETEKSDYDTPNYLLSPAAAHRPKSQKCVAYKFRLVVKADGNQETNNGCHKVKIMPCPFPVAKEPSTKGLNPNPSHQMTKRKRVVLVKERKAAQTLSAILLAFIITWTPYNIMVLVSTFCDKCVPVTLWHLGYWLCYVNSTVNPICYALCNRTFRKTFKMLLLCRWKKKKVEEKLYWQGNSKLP

A further assay deals with T3, Thromboxane A2 receptor (Homo sapiens, UniProt P21731).
T3 sequence (P21731 whole entry): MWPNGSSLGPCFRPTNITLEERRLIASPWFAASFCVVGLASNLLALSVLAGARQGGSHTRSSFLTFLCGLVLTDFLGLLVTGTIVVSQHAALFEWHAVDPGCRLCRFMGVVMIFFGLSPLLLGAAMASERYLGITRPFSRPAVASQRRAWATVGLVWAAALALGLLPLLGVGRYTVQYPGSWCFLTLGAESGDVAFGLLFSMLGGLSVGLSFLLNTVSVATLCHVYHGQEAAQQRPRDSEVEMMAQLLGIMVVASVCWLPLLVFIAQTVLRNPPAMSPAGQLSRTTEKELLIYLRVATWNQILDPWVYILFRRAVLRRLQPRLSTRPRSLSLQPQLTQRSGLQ
Type of assay: functional.

The target in assay [4] is Beta-3 adrenergic receptor (Homo sapiens, UniProt P13945).
Chain of Beta-3 adrenergic receptor (P13945 whole entry): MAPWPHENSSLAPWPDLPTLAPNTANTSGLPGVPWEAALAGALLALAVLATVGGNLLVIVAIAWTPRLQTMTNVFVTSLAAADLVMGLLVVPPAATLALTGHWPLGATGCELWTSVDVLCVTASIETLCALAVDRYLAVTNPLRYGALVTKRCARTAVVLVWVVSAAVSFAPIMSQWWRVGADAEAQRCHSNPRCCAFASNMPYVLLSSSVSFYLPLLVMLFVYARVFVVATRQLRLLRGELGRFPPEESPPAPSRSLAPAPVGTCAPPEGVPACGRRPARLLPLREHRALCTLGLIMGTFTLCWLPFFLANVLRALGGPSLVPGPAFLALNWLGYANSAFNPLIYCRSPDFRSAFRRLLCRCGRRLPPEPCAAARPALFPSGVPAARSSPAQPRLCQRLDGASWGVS
In assay [5] the target is T4, Corticotropin-releasing factor receptor 2 (Homo sapiens, UniProt Q13324).
T4 sequence (Q13324 whole entry): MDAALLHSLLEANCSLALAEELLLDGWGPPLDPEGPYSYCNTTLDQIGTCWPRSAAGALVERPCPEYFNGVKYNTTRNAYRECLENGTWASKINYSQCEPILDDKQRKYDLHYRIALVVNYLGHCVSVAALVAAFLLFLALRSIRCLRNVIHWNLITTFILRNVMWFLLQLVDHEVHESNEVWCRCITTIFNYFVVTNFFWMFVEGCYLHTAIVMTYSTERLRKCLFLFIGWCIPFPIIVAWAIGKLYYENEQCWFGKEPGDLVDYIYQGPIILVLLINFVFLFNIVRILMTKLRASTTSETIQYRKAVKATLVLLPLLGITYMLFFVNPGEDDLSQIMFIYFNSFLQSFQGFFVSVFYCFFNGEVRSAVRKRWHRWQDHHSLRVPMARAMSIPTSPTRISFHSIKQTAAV

Assay [6] deals with T5, Alpha-1A adrenergic receptor (Homo sapiens, UniProt P35348).
T5 sequence (P35348 whole entry): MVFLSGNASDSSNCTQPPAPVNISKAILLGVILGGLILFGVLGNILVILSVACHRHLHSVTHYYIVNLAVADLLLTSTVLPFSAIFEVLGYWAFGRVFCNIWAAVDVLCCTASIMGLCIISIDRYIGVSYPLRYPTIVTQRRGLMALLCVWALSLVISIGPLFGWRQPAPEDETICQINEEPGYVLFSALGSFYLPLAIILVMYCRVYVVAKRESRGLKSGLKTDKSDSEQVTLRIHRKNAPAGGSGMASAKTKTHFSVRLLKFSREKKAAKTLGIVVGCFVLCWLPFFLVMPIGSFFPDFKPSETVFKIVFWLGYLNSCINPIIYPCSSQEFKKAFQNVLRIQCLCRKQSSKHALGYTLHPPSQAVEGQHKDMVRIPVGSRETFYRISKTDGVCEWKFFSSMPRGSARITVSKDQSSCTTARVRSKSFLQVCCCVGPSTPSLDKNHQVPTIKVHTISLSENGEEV

Assay [7] deals with Gamma-aminobutyric acid receptor subunit alpha-1/alpha-2/beta-2/gamma-2 (Homo sapiens, UniProt P14867+P18507+P47869+P47870). Type of assay: protein-complex assay.
Chain of Gamma-aminobutyric acid receptor subunit alpha-1/alpha-2/beta-2/gamma-2 (P14867 whole entry): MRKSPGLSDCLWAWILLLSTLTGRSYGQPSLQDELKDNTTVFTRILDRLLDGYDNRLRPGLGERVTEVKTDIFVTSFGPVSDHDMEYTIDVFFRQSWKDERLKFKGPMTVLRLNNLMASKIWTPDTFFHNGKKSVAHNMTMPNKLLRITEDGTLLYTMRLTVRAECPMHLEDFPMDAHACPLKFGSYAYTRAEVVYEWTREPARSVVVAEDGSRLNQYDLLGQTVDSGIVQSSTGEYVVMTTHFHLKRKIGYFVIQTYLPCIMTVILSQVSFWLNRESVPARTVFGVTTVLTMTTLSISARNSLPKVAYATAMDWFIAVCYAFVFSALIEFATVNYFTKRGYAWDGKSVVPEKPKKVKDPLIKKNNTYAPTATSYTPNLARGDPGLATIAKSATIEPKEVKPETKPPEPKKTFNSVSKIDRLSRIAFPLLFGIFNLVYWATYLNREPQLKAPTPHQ
Chain of Gamma-aminobutyric acid receptor subunit alpha-1/alpha-2/beta-2/gamma-2 (P47870 whole entry): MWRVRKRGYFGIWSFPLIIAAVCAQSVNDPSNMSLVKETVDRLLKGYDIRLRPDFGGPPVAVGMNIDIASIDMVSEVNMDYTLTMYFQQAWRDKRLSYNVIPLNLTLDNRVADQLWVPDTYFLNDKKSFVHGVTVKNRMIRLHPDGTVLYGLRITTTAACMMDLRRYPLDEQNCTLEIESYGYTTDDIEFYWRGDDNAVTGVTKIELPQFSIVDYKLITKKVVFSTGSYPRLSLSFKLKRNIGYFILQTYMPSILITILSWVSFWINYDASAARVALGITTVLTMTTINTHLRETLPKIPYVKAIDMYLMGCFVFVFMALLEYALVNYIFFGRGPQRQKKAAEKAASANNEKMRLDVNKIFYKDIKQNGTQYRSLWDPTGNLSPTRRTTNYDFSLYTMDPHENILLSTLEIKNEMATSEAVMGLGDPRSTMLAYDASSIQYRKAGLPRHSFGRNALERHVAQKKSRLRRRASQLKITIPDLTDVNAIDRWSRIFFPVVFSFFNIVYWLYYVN
Chain of Gamma-aminobutyric acid receptor subunit alpha-1/alpha-2/beta-2/gamma-2 (P18507 whole entry): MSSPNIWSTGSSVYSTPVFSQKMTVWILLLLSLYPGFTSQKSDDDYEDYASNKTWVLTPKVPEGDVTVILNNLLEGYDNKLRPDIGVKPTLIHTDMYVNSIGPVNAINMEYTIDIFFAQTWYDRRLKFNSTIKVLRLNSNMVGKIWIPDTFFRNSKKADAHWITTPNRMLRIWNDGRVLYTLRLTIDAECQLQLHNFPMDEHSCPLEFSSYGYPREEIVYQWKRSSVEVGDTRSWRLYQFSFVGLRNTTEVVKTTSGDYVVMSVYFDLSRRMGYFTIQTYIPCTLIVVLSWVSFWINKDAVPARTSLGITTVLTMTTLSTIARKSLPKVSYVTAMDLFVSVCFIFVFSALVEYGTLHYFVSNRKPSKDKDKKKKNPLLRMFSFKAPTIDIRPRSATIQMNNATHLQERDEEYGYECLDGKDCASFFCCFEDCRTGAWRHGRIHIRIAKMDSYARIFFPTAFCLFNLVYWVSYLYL
Chain of Gamma-aminobutyric acid receptor subunit alpha-1/alpha-2/beta-2/gamma-2 (P47869 whole entry): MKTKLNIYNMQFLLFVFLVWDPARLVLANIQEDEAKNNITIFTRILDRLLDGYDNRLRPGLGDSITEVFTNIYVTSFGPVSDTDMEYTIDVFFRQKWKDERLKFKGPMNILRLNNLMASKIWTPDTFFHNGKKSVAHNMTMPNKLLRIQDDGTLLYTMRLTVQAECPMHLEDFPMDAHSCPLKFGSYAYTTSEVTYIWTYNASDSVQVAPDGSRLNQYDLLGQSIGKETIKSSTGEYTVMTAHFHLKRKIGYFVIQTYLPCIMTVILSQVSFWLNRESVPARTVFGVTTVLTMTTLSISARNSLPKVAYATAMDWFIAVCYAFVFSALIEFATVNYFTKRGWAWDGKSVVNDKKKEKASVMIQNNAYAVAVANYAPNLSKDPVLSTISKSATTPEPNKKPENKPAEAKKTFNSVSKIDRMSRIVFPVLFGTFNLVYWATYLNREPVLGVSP
For assay [8], the target named is Hydroxycarboxylic acid receptor 2 (Homo sapiens, UniProt Q8TDS4).
Chain of Hydroxycarboxylic acid receptor 2 (Q8TDS4 whole entry): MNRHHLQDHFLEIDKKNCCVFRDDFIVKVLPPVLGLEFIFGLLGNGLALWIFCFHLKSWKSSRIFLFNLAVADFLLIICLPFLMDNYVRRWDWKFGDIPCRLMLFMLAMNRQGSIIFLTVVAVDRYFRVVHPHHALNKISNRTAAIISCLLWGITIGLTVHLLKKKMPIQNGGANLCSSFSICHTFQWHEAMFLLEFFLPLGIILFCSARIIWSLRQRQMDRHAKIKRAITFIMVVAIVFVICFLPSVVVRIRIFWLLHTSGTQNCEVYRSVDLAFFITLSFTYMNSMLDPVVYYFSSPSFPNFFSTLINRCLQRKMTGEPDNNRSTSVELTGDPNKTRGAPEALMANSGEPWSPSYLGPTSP
Also: assay procedure not described here.

Regarding `Cn1nnc2c(C(N)=O)ncn2c1=O` [TEMOZOLOMIDE], the AC50 – broadly, the concentration giving half of the maximal activity seen – in assay [1] is more than 10 µM; on Cannabinoid receptor 1, more than 10 µM; in [2], more than 10 µM; in assay [3] it was more than 10 µM; at Thromboxane A2 receptor, more than 30 µM; in [4], more than 30 µM. The values for the AC50 in [5] and in assay [6] were more than 30 µM and more than 10 µM, respectively.

Consider `Cc1cn([C@H]2C=C[C@@H](CO)O2)c(=O)[nH]c1=O` [STAVUDINE], for which the concentration at half-maximal activity (AC50) was more than 10 µM in assay [1]; more than 10 µM on Cannabinoid receptor 1; more than 10 µM in assay [2]; more than 10 µM in assay [3]; more than 30 µM in [7]; more than 30 µM at Thromboxane A2 receptor. For the same compound, the concentration at half-maximal activity (AC50) in [4] is more than 30 µM; in [5], more than 30 µM; in assay [6], more than 10 µM.

Turning to `CCOC(=O)[C@H](CCc1ccccc1)N[C@@H](C)C(=O)N1[C@H](C(=O)O)C[C@@H]2CCC[C@@H]21`, the half-maximal activity concentration (AC50) is more than 10 µM in assay [1]; more than 10 µM in assay [8]; more than 30 µM in assay [4]; more than 30 µM in assay [5]; more than 10 µM in assay [6].

Consider `Cc1ccc(-c2cc(C(F)(F)F)nn2-c2ccc(S(N)(=O)=O)cc2)cc1` [CELECOXIB], for which the concentration at half-maximal activity (AC50) was more than 10 µM in assay [1]; more than 10 µM on Cannabinoid receptor 1; more than 10 µM in assay [2]; more than 10 µM in assay [3]; more than 10 µM in assay [8]; 5.2 µM in assay [4]. In addition, the AC50 in assay [5] was more than 30 µM; in [6], more than 10 µM.

With `NCC(CC(=O)O)c1ccc(Cl)cc1` (configuration not stated) [BACLOFEN], the AC50 in assay [1] was more than 10 µM; at Cannabinoid receptor 1, more than 10 µM; in assay [2] it was more than 10 µM; in [3], more than 10 µM; in [7], more than 30 µM; at Thromboxane A2 receptor, more than 30 µM. Moreover, the half-maximal activity concentration (AC50) is more than 30 µM in [4], more than 30 µM in [5] and more than 10 µM in [6].

Take `Cc1cn([C@H]2C[C@H](N=[N+]=[N-])[C@@H](CO)O2)c(=O)[nH]c1=O` [ZIDOVUDINE]: the AC50 in assay [1] was more than 10 µM; in [8], more than 10 µM; in assay [4], more than 30 µM; in [5] it was more than 30 µM; in [6] it was more than 10 µM.

Consider `C[C@]12CCC(=O)C=C1CC[C@@H]1[C@@H]2[C@@H](O)C[C@@]2(C)[C@H]1CC[C@]2(O)C(=O)CO` [HYDROCORTISONE], for which the half-maximal activity concentration (AC50) in assay [1] is more than 10 µM; in assay [8], more than 10 µM; in assay [4] it was more than 30 µM; in assay [5], more than 30 µM.

As for `Clc1ccc2nsnc2c1NC1=NCCN1` [TIZANIDINE], the AC50 in assay [8] was more than 10 µM; in [4], more than 30 µM; in assay [5] it was more than 30 µM; in assay [6], 1.92 µM.

With `CC1=C(C(=O)O)N2C(=O)[C@@H](NC(=O)[C@H](N)c3ccccc3)[C@H]2SC1` [CEPHALEXIN ANHYDROUS], the AC50 in assay [1] was more than 10 µM; in [8] it was more than 10 µM; in [4], more than 30 µM; in [5] it was more than 30 µM; in assay [6], more than 10 µM.
